Experimental data as given in patent publication US5773449A, “Thioquinolone compounds which have useful pharmaceutical activity” (Zenyaku Kogyo Kabushiki Kaisha, priority 1994, dated 1998).
≈ marks a conversion by molar mass, not a printed value.

Experiments:
peptic ulcer = settings: H2-blocker / proton-pump inhibitor; cited from earlier work
M.luteus ATCC 9341 = experiment: Antibacterial Test 2: agar plate dilution method (aerobic MIC method), M.luteus; format: cell-based; settings: Micrococcus luteus, ATCC9341, sensitive-disk agar medium-N
Experimental: (§1) Then, tested were antibacterial activities of the typical compounds of the present invention against gram-positive and-negative bacteria other than Hp. MICs of the typical compounds of the present invention were determined in substantial accordance with agar plate dilution method (aerobic MIC method) based on Standard method of The Japan Society of Chemotherapy.
(§2) The respective test compound were dissolved in dimethyl sulfoxide (DMSO) and serially diluted twofold. These diluted solutions of the compounds were respectively added to sensitive-disk agar medium-N (manufactured by NISSUI SEIYAKU) to prepare agar plates for determination with concentration of 0.05-100 μg/ml.
(§3) The below-mentioned strains freezingly conserved at -135° C. were thawed in a warm bath (40° C.), cultured in a sensitivity-determining bouillon at 37° C. for 18-20 hours, and then diluted with the above-mentioned medium to prepare about 1.0×10^6CFU/ml of bacterial solution.
(§4) Inoculation was made by 5 μl by multi-inoculator (manufactured by SAKUMA SEISAKUSHO). Culturing was made under the same conditions as those of the pre-culturing and the MIC (unit: μg/ml) was determined by observing whether the bacteria grew or not.

[1] = test system: Helicobacter pylori standard strain ATCC 43526 (NCTC 11916); experiment: Antibacterial test 1: agar plate dilution method (anaerobic MIC method) against Hp; format: cell-based; settings: 72 h; Helicobacter pylori ATCC 43526 (NCTC 11916); brucella agar + 7% horse blood, microaerobic, 37° C., 3 days
Experimental: Antibacterial test against Hp was performed in substantial accordance with agar plate dilution method (anaerobic MIC method) based on Standard method of The Japan Society of Chemotherapy to determine minimum inhibitory concentration (MIC) of the respective test compounds. The respective test compounds were sequentially dissolved in dimethyl sulfoxide (DMSO) and serially diluted twofold. […] Strain used for inoculation was Helicobacter pylori standard strain ATCC 43526 (NCTC 11916). For pre-culturing of bacteria to be inoculated, the above-mentioned strain freezingly conserved at -135° C. was thawed in a warm bath (40° C.), applied on a brucella agar medium containing 7% horse blood free from fibrin, and microaerobically cultured in a jar for anaerobic bacteria at 37° C. for 3 days. The solution of bacteria to be inoculated was prepared by collecting colonies grown on the culture medium and suspending the same in the brucella broth.

K.pneumoniae PCI 602 = experiment: Antibacterial Test 2: agar plate dilution method (aerobic MIC method), K.pneumoniae; format: cell-based; settings: Klebsiella pneumoniae, PCI602, sensitive-disk agar medium-N
Experimental: as §1, §2, §3, §4

P.aeruginosa IFO 3445 = experiment: Antibacterial Test 2: agar plate dilution method (aerobic MIC method), P.aeruginosa; format: cell-based; settings: Pseudomonas aeruginosa, IFO3445, sensitive-disk agar medium-N
Experimental: as §1, §2, §3, §4

E.faecalis RIMD 3336001 = experiment: Antibacterial Test 2: agar plate dilution method (aerobic MIC method), E.faecalis; format: cell-based; settings: Enterococcus faecalis, RIMD3336001, sensitive-disk agar medium-N
Experimental: as §1, §2, §3, §4

E.coli NIHJ JC-2 = experiment: Antibacterial Test 2: agar plate dilution method (aerobic MIC method), E.coli; format: cell-based; settings: Escherichia coli, NIHJJC2, sensitive-disk agar medium-N
Experimental: as §1, §2, §3, §4

S.aureus FDA 209P = experiment: Antibacterial Test 2: agar plate dilution method (aerobic MIC method), S.aureus; format: cell-based; settings: Staphylococcus aureus, FDA209P, sensitive-disk agar medium-N
Experimental: as §1, §2, §3, §4

B.subtilis PCI 219 = experiment: Antibacterial Test 2: agar plate dilution method (aerobic MIC method), B.subtilis; format: cell-based; settings: Bacillus subtilis, PCI219, sensitive-disk agar medium-N
Experimental: as §1, §2, §3, §4

SMILES | MIC (M.luteus ATCC 9341) [µg/mL] | MIC [1] [µg/mL] | MIC (K.pneumoniae PCI 602) [µg/mL] | MIC (P.aeruginosa IFO 3445) [µg/mL] | MIC (E.faecalis RIMD 3336001) [µg/mL] | MIC (E.coli NIHJ JC-2) [µg/mL] | MIC (S.aureus FDA 209P) [µg/mL] | MIC (B.subtilis PCI 219) [µg/mL] | cure rate (peptic ulcer)
CN/C(=N/CCSCc1nc[nH]c1C)NC#N [cimetidine] |  |  |  |  |  |  |  |  | 80-90%
S=c1cc[nH]c2c1ccc1ccccc12 [compound 39, Benzo[h]quinoline-4(1H)-thione] | > 100 | 0.39 | > 100 | > 100 | > 100 | > 100 | > 100 | > 100 | 
S=c1cc[nH]c2c3c(ccc12)CCCC3 [compound 40, 7,8,9,10-Tetrahydrobenzo[h]quinoline-4(1H)-thione] | > 100 | 0.2 | > 100 | > 100 | > 100 | > 100 | > 100 | > 100 | 
S=c1cc[nH]c2cc(N3CCNCC3)ccc12 [compound 54, 7-(1-Piperazinyl)quinoline-4(1H)-thione] | > 100 | 3.13 | > 100 | > 100 | > 100 | > 100 | 100 (≈ 408 µM) | > 100 | 
Cc1ccc2c(=S)cc[nH]c2c1C [compound 55, 7,8-Dimethylquinoline-4(1H)-thione] | > 100 | 0.39 | > 100 | > 100 | > 100 | > 100 | > 100 | > 100 | 
Cc1c(OCC(F)(F)F)ccnc1C[S+]([O-])c1nc2ccccc2[nH]1 (centres unmarked) [lansoprazole, reference compound] | > 100 | 12.5 | > 100 | > 100 | > 100 | > 100 | > 100 | > 100 | 
COc1ccc2[nH]c([S+]([O-])Cc3ncc(C)c(OC)c3C)nc2c1 (centres unmarked) [omeprazole] |  |  |  |  |  |  |  |  | 80-90%

Now from value to molecule, other results behind:

MIC (M.luteus ATCC 9341) [µg/mL] | MIC [1] [µg/mL] | MIC (K.pneumoniae PCI 602) [µg/mL] | MIC (P.aeruginosa IFO 3445) [µg/mL] | MIC (E.faecalis RIMD 3336001) [µg/mL] | MIC (E.coli NIHJ JC-2) [µg/mL] | MIC (S.aureus FDA 209P) [µg/mL] | MIC (B.subtilis PCI 219) [µg/mL] | SMILES | cure rate (peptic ulcer)
> 100 | 0.78 | > 100 | > 100 | > 100 | > 100 | > 100 | > 100 | Cc1cccc2c(=S)cc[nH]c12 [compound 41, 8-Methylquinoline-4(1H)-thione] | 
50 (≈ 199 µM) | 0.2 | > 100 | > 100 | > 100 | > 100 | > 100 | > 100 | S=c1cc[nH]c2cc(Cc3ccccc3)ccc12 [compound 47, 7-Benzylquinoline-4(1H)-thione] | 
> 100 | 0.2 | > 100 | > 100 | > 100 | > 100 | 100 (≈ 489 µM) | > 100 | CN(C)c1ccc2c(=S)cc[nH]c2c1 [compound 48, 7-N,N-Dimethylaminoquinoline-4(1H)-thione] | 
> 100 | 0.39 | > 100 | > 100 | > 100 | > 100 | > 100 | > 100 | CC(C)Sc1ccc2c(=S)cc[nH]c2c1 [compound 49, 7-Isopropylthioquinoline-4(1H)-thione] | 
> 100 | 1.56 | > 100 | > 100 | > 100 | > 100 | > 100 | > 100 | S=c1cc[nH]c2cc(CSc3nc4ccccc4[nH]3)ccc12 [compound 50, 7-(2-Benzimidazolyl)thiomethylquinoline-4(1H)-thione] | 
> 100 | 1.56 | > 100 | > 100 | 100 (≈ 343 µM) | > 100 | 100 (≈ 343 µM) | > 100 | O=C(O)CCCCCOc1ccc2c(=S)cc[nH]c2c1 [compound 51, 7-(5-Carboxy-n-pentyloxy)quinoline-4(1H)-thione] | 
> 100 | 3.13 | > 100 | > 100 | > 100 | > 100 | > 100 | > 100 | CCCCCCCCOc1ccc2c(=S)cc[nH]c2c1 [compound 53, 7-Octyloxyquinoline-4(1H)-thione] | 
